Results taken from patent publication US8071786B2, “Indole compounds useful as serotonin selective agents” (Galenea Corp., priority 2005, dated 2011).
Marks after values point to notes of the source that are not given here.

Key:
[1] = target: T1, human 5-HT2C-INI (Homo sapiens, UniProt P28335); experiment: Phosphoinositide hydrolysis functional assay; assay type: cell-based; details: for EC50 / Functional Assay (EC50) 5-HT2C: activation of phosphoinositide hydrolysis, stably expressed receptor; for Emax: value in brackets, read-out: percent Vmax relative to serotonin at 100%, 5-HT2C (converted)
T1 construct: expressed in transfected cells
T1 sequence (P28335 33-458): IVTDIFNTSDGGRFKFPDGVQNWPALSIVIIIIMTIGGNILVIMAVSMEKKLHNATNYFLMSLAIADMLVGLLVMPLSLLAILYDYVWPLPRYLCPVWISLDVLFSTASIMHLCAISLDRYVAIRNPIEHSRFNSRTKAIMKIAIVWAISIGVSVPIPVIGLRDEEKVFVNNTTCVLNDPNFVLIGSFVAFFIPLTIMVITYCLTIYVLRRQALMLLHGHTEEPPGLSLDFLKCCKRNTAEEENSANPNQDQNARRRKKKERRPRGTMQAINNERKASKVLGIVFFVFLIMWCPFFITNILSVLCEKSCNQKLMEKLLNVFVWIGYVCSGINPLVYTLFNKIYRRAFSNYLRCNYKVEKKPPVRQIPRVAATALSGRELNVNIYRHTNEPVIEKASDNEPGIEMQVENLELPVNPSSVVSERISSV
Method: (§1) Phosphoinositide hydrolysis assays were performed with stably (5-HT2A, 5-HT2C) or transiently (5-HT2B) expressed receptors plated in 24-well culture plates. Transfected cells were loaded with […] overnight in inositol-free DMEM without serum. The next day, phosphate accumulation assays were performed in a modified Krebs-bicarbonate buffer. Kact (nmol/L) and percent Vmax (relative to 5-HT) values were calculated (Roth, B. L., Shoham, M., Choudhary, M., Khan, N. “Identification of Conserved Aromatic Residues Essential for Agonist Binding and Second Messenger Production at 5-Hydroxytryptamine 2A Receptors” Mol. Pharmacol. 1997, 52, 259; Roth, B. L., Choudhary, M., Khan, N., Uluer, A. “High-affinity Agonist Binding is not Sufficient for Agonist Efficacy at 5-Hydroxytryptamine 2A Receptors: Evidence in Favor of a Modified Ternary Complex Model” J. Pharmacol. Exp. Ther. 1997, 280, 576).
(§2) Functional Assay (EC50) in nM. Data represent mean EC50 values for activation of phospho-inositide hydrolysis in cells expressing human 5-HT2A, 5-HT2B or 5-HT2C-INI receptors, relative to serotonin at 100%. When the standard deviation is given, N≧3.

[2] = target: 5-HT2A (Homo sapiens, UniProt P28223); experiment: Phosphoinositide hydrolysis functional assay; assay type: cell-based; design: expressed in transfected cells; details: for EC50 / Functional Assay (EC50) 5-HT2A: activation of phosphoinositide hydrolysis, stably expressed receptor; for percent Vmax relative to serotonin at 100%, 5-HT2A: value in brackets
Sequence of 5-HT2A (P28223 whole entry): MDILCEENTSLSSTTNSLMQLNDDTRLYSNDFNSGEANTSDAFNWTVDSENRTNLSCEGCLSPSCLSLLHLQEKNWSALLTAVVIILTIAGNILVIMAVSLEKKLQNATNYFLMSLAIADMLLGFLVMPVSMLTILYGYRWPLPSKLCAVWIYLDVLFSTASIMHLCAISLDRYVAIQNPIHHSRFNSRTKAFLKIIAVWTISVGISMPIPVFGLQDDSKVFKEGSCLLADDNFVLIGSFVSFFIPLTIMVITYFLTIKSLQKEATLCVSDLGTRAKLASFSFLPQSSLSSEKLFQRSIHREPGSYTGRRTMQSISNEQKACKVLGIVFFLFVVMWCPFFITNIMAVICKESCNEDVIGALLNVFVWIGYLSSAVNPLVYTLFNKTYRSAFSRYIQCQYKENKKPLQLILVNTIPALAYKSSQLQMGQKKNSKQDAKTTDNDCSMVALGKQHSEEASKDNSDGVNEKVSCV
Method: as §1, §2

[3] = target: 5-HT2B (Homo sapiens, UniProt P41595); experiment: Phosphoinositide hydrolysis functional assay; assay type: cell-based; design: expressed in transfected cells; details: activation of phosphoinositide hydrolysis, transiently expressed receptor
Sequence of 5-HT2B (P41595 whole entry): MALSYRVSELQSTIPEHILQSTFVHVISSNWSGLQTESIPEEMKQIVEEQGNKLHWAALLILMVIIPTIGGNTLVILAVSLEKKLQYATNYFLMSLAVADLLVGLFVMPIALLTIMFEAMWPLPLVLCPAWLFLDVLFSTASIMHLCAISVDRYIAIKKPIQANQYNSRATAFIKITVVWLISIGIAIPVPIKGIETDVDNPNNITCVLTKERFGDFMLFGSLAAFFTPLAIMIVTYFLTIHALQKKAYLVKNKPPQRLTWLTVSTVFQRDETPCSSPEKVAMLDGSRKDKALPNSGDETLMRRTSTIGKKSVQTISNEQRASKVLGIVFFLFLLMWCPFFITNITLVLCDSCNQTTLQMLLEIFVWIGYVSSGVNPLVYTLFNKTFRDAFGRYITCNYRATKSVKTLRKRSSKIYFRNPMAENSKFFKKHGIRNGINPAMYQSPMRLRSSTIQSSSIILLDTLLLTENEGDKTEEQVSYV
Method: as §1, §2

[4] = Appetite suppression in mice, acute assay (food consumption); assay type: in vivo; details: for Mean food consumption 60 min. after injection: g (±SEM) Compound / Mean food consumption 90 min. after injection: g (±SEM) Compound: mice deprived of food 18 hours
Method: Mice were deprived of food, but not water, for 18 hours. They were then injected i.p. with test compounds dissolved in 0.9% NaCl containing 1 mg per ml ascorbic acid for protection against oxidation. Each mouse was placed in an individual cage for 30 minutes and then presented with a small petri dish containing a gel made from gelatin, powdered milk and sucrose. The dish was weighed at zero time and at 15-minute intervals for the next hour in order to quantitate food consumption. Controls were injected with saline-ascorbic acid; ±fenfluramine was used as an active control. Control consumption generally ranged from 1.5 to 2.0 grams.

[5] = Appetite suppression in mice, chronic assay (body weight); assay type: in vivo
Method: Mice were injected i.p. at intervals of 2 or 3 days and weighed repeatedly (6 or 7 total injections). Controls were injected with saline. Weighing and injection were carried out between 11 AM and 1 PM.

[6] = tested on: itch-associated scratching induced by serotonin; experiment: Animal model for OCD: serotonin-induced scratching; assay type: in vivo, male Swiss-Webster mice; details: for Number of Scratches as Percentage of Control: inducer Serotonin
Method: The 5-HT action is at least partly mediated by 5-HT2 receptors in the skin, as shown by blocking with specific antagonists (Yamaguchi, T., Nagasawa, T., Satoh, M., Kuraishi, Y. “Itch-associated Response Induced by Intradermal Serotonin Through 5-HT2 Receptors in Mice” Neurosci. Res. 1999, 35, 77). The effect of test compounds on itch-associated scratching in the mice may indicate their action on 5-HT receptors, and a study was carried out as an animal model for OCD. The subjects were male Swiss-Webster mice, 4-6 weeks old, weighing 25-45 g. Mice were housed 5 per cage, given free access to standard mouse food and water except during experiments, and maintained in a temperature-controlled room (70° F.). Serotonin and all test drugs were made up with ascorbic acid to protect against oxidation. Two mice, one a control, the other experimental, were tested each time. Each mouse was separately placed into a plexiglas box.
Mice were injected subcutaneously between the shoulder blades with either 0.1 ml of serotonin, 0.4 mg per ml in 0.15 M saline plus ascorbic acid, 1 mg/ml, or compound 48-80 (the copolymer product of N-methyl-p-methoxyphenethylamine with formaldehyde), 1.0 mg/ml in saline plus ascorbic acid. Test compounds were injected i.p. 5 minutes before the inducer. The cumulative number of scratches with a hind leg was recorded at 5 minute intervals for 30 minutes. One saline injected control and one test animal were tested together in each assay.

[7] = 20 mg/kg i.p. at intervals of 2 or 3 days
[8] = 10 mg/kg i.p. 5 minutes before inducer Serotonin
[9] = dose cell empty (10 mg/kg printed on the Saline line above), i.p. at intervals of 2 or 3 days

Compound: CCCn1cc(CCN(C)C)c2c(O)cc(F)cc21 [Compound O-4285, 3-(2-Dimethylaminoethyl)-6-fluoro-1-propyl-1H-indol-4-ol]
- EC50 [1]: 131 nM
- Emax [1]: ~75%
- melting point: 104 to 106 °C
- EC50 [2]: 166 nM
- percent Vmax relative to serotonin at 100%, 5-HT2A [2]: 63%
- Functional Assay (EC50) 5-HT2B [3]: Inactive

Compound: CC(C)n1cc(CCN(C)C)c2c(O)ccc(F)c21
- melting point: 108 to 110 °C

Compound: CN(C)CCc1cn(S(C)(=O)=O)c2cc(F)cc(O)c12
- melting point: 184 to 186 °C

Compound: CCCCn1cc(CCN(C)C)c2c(O)cc(F)cc21 [Compound O-4286, 3-(2-Dimethylaminoethyl)-6-fluoro-1-butyl-1H-indol-4-ol]
- Functional Assay (EC50) 5-HT2C [1]: inactive
- melting point: 92 to 95 °C
- Functional Assay (EC50) 5-HT2A [2]: Inactive
- Functional Assay (EC50) 5-HT2B [3]: Inactive

Compound: CCS(=O)(=O)n1cc(CCN(C)C)c2c(O)cc(F)cc21 [Compound O-4312, 3-(2-Dimethylaminoethyl)-6-fluoro-1-ethylsulfonyl-1H-indol-4-ol]
- Functional Assay (EC50) 5-HT2C [1]: inactive
- Functional Assay (EC50) 5-HT2A [2]: inactive
- Functional Assay (EC50) 5-HT2B [3]: Inactive

Compound: CC(C)n1cc(CCN(C)C)c2c(O)cc(F)cc21 [Compound O-4310, 3-(2-Dimethylaminoethyl)-6-fluoro-1-isopropyl-1H-indol-4-ol]
- EC50 [1]: 592 nM
- Emax [1]: ~50%
- EC50 [2]: 5 nM
- percent Vmax relative to serotonin at 100%, 5-HT2A [2]: 89%
- Functional Assay (EC50) 5-HT2B [3]: Inactive

Compound: CCCn1cc(CCN(C)C)c2c(OP(=O)(O)O)ccc(F)c21 [Compound O-4309, 3-(2-Dimethylaminoethyl)-7-fluoro-1-propyl-1H-indol-4-phosphate]
- % of Control (food consumption 60 min. after injection) ([4]; 10 mg/kg i.p.): 41%
- % of Control (food consumption 90 min. after injection) ([4]; 10 mg/kg i.p.): 64%
- Mean food consumption 60 min. after injection: g (±SEM) Compound ([4]; 10 mg/kg i.p.): 0.28 (.06)* g
- Mean food consumption 90 min. after injection: g (±SEM) Compound ([4]; 10 mg/kg i.p.): 0.68 (0.1)* g
- % of Control (food consumption 60 min. after injection) ([4]; 20 mg/kg i.p.): 9%
- % of Control (food consumption 90 min. after injection) ([4]; 20 mg/kg i.p.): 18%
- Mean food consumption 60 min. after injection: g (±SEM) Compound ([4]; 20 mg/kg i.p.): .07 (.02)* g
- Mean food consumption 90 min. after injection: g (±SEM) Compound ([4]; 20 mg/kg i.p.): 0.22 (.05)* g
- Day 7 % Δ from starting weight [5, 7]: −2.3* %
- Day 7 Difference within same group [5, 7]: -1.20 g
- Day 14 % Δ from starting weight [5, 7]: −6.03* %
- Day 14 Difference within same group [5, 7]: -3.20 g
- Average Number of Scratches 30 min. after injection ([6]; 2.5 mg/kg i.p. 5 minutes before inducer Serotonin): 181.4
- Number of Scratches as Percentage of Control ([6]; 2.5 mg/kg i.p.): 97.4%
- Average Number of Scratches 30 min. after injection ([6]; 5 mg/kg i.p. 5 minutes before inducer Serotonin): 89.6
- Number of Scratches as Percentage of Control ([6]; 5 mg/kg i.p.): 17.8%
- Average Number of Scratches 30 min. after injection [6, 8]: 8.8
- Number of Scratches as Percentage of Control ([6]; 10 mg/kg i.p.): 1.6%

Compound: CCNC(C)Cc1cccc(C(F)(F)F)c1 (centres unmarked) [+/−Fenfluramine, Fenfluramine, reference compound]
- % of Control (food consumption 60 min. after injection) ([4]; 3 mg/kg i.p.): 95%
- % of Control (food consumption 90 min. after injection) ([4]; 3 mg/kg i.p.): 95%
- Mean food consumption 60 min. after injection: g (±SEM) Compound ([4]; 3 mg/kg i.p.): 1.2 (.12) g
- Mean food consumption 90 min. after injection: g (±SEM) Compound ([4]; 3 mg/kg i.p.): 1.60 (.14) g
- % of Control (food consumption 60 min. after injection) ([4]; 5 mg/kg i.p.): 61%
- % of Control (food consumption 90 min. after injection) ([4]; 5 mg/kg i.p.): 67%
- Mean food consumption 60 min. after injection: g (±SEM) Compound ([4]; 5 mg/kg i.p.): 0.90 (.04)* g
- Mean food consumption 90 min. after injection: g (±SEM) Compound ([4]; 5 mg/kg i.p.): 1.18 (.17)* g
- % of Control (food consumption 60 min. after injection) ([4]; 10 mg/kg i.p.): 30%
- % of Control (food consumption 90 min. after injection) ([4]; 10 mg/kg i.p.): 35%
- Mean food consumption 60 min. after injection: g (±SEM) Compound ([4]; 10 mg/kg i.p.): 0.41 (.11)* g
- Mean food consumption 90 min. after injection: g (±SEM) Compound ([4]; 10 mg/kg i.p.): 0.56 (.13)* g
- Day 7 % Δ from starting weight [5, 9]: −9.54* %
- Day 7 Difference within same group [5, 9]: -4.74 g
- Day 14 % Δ from starting weight [5, 9]: −10.7* %
- Day 14 Difference within same group [5, 9]: -5.32 g
- Average Number of Scratches 30 min. after injection [6, 8]: 12.8*
- Number of Scratches as Percentage of Control ([6]; 10 mg/kg i.p.): 6.5%

Compound: CCCCn1cc(CCN(C)C)c2c(O)ccc(F)c21 [Compound O-4205, 3-(2-Dimethylaminoethyl)-7-fluoro-1-butyl-1H-indol-4-ol]
- Functional Assay (EC50) 5-HT2C [1]: inactive
- melting point: 87 to 90 °C
- Functional Assay (EC50) 5-HT2A [2]: Inactive
- Functional Assay (EC50) 5-HT2B [3]: Inactive

Compound: CN(C)CCc1cn(C)c2cc(F)cc(O)c12 [Compound O-4244, 3-(2-Dimethylaminoethyl)-6-fluoro-1-methyl-1H-indol-4-ol]
- EC50 [1]: 0.66 nM
- Emax [1]: 75%
- melting point: 132 to 134 °C
- EC50 [2]: 0.55 nM
- percent Vmax relative to serotonin at 100%, 5-HT2A [2]: 61%
- Functional Assay (EC50) 5-HT2B [3]: Inactive

Compound: CCn1cc(CCN(C)C)c2c(O)cc(F)cc21 [Compound O-4284, 3-(2-Dimethylaminoethyl)-6-fluoro-1-ethyl-1H-indol-4-ol]
- EC50 [1]: 0.54 nM
- Emax [1]: 73%
- EC50 [2]: 2.9 nM
- percent Vmax relative to serotonin at 100%, 5-HT2A [2]: 73%
- Functional Assay (EC50) 5-HT2B [3]: Inactive

Compound: CN(C)CCc1cn(S(C)(=O)=O)c2c(F)ccc(O)c12
- melting point: 181 to 183 °C

Compound: CNCCC(Oc1ccc(C(F)(F)F)cc1)c1ccccc1 (centres unmarked) [Fluoxetine, reference compound]
- Average Number of Scratches 30 min. after injection [6, 8]: 15
- Number of Scratches as Percentage of Control ([6]; 10 mg/kg i.p.): 4.1%
